From patent publication US8883792B2, “Substituted isoquinoline derivative” (D. Western Therapeutics Institute, Inc., priority 2010, dated 2014) come the findings set out here.

Test [1] has as its system rabbits (New Zealand White). The experiment in a line: Ocular hypotensive effect in rabbits. It is filed as in vivo, rabbit. The conditions noted are these: male New Zealand White rabbits, 0.04 mL eye drop, concentration of 1% (w/v) or lower, maximum ocular hypotensive rate vs vehicle-treated contralateral eye. The essentials: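 Male New Zealand White rabbits (3–6 per group) received 0.04 mL compound solution (pH 7.0 phosphate/NaCl vehicle or 2% boric acid) in one eye and vehicle in the other. IOP measured by rebound tonometer before dosing and over time; ocular hypotensive rate taken as treated-eye IOP relative to vehicle-eye IOP.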

Test [2] concerns spontaneously hypertensive rats (SHR/Izm). Briefly: Blood pressure lowering effect in spontaneously hypertensive rats. The conditions noted are these: Rattus norvegicus, ip, male SHR/Izm rats, intraperitoneal, measured over time, read-out: lowered the systolic blood pressures by up to, compared with the value before administration. The format is in vivo. On the procedure: The compound of the present invention was intraperitoneally administered to spontaneously hypertensive rats (SHR/Izm, sex: male, 4 to 6 rats per group) and evaluated for its blood pressure lowering effect. The compounds of Examples 5, 23, 25, 35, 36, 53, 58, 83, 84, 86, 87, and 90 were used as test compounds.
Each test compound was dissolved in saline and diluted to prepare a test compound solution with a predetermined concentration.
The test compound was intraperitoneally administered at a dose of 10 mg/kg to the animals, and their blood pressures and pulse rates were measured over time using Softron Indirect Blood Pressure Meter BP-98A.

Counter-ions that a name gives are not always drawn.

For the molecule `CCCCNC[C@@H](C)NS(=O)(=O)c1ccc2cnccc2c1` [Example 5, (R)—N-{1-(butylamino)propan-2-yl}isoquinoline-6-sulfonamide dihydrochloride], in test [1], the Ocular hypotensive activity result is recorded as “++ (maximum ocular hypotensive rate of 15% or more)”. The inhibition in vivo at 10 mg/kg in test [2] was at most 16%.
On to `C[C@H](CNC[C@@H](O)c1ccsc1)NS(=O)(=O)c1ccc2cnccc2c1.Cl` [Example 90, N—[(R)-1-{(S)-2-hydroxy-2-(thiophen-3-yl)ethylamino}propan-2-yl]isoquinoline-6-sulfonamide hydrochloride], for which the Ocular hypotensive activity result in test [1] was “++ (maximum ocular hypotensive rate of 15% or more)”. Further, the inhibition in vivo at 10 mg/kg in test [2] was at most 20%.
The corresponding values for `C[C@H](CNCCc1ccccc1)NS(=O)(=O)c1ccc2cnccc2c1` [Example 23, (R)—N-{1-(phenethylamino)propan-2-yl}isoquinoline-6-sulfonamide dihydrochloride] are “++ (maximum ocular hypotensive rate of 15% or more)” and at least 30%.
Turning to `C[C@H](CNC[C@@H](O)c1ccc(F)cc1)NS(=O)(=O)c1ccc2cnccc2c1.Cl` [Example 84, N—[(R)-1-{(S)-2-(4-fluorophenyl)-2-hydroxyethylamino}propan-2-yl]isoquinoline-6-sulfonamide hydrochloride], the Ocular hypotensive activity entry in test [1] is recorded as “++ (maximum ocular hypotensive rate of 15% or more)”. The inhibition in vivo at 10 mg/kg in test [2] was at most 20%.
Take `C[C@H](CNC[C@@H](O)c1ccccc1)NS(=O)(=O)c1ccc2cnccc2c1.Cl` [Example 83, N—[(R)-1-{(S)-2-hydroxy-2-phenylethylamino}propan-2-yl]isoquinoline-6-sulfonamide hydrochloride]: the Ocular hypotensive activity result in test [1] is “++ (maximum ocular hypotensive rate of 15% or more)”. In addition, the inhibition in vivo at 10 mg/kg in test [2] is at least 30%.
The like results for `C[C@H](CNCCCCc1ccccc1)NS(=O)(=O)c1ccc2cnccc2c1` [Example 35, (R)—N-{1-(4-phenylbutylamino)propan-2-yl}isoquinoline-6-sulfonamide dihydrochloride] were, in that order, “++ (maximum ocular hypotensive rate of 15% or more)” and at most 20%.
On to `C[C@H](CNCCc1ccc(F)cc1)NS(=O)(=O)c1ccc2cnccc2c1.Cl` [Example 53, (R)—N-{1-(4-fluorophenethylamino)propan-2-yl}isoquinoline-6-sulfonamide hydrochloride], for which the Ocular hypotensive activity entry in test [1] is “++ (maximum ocular hypotensive rate of 15% or more)”. Also, the inhibition in vivo at 10 mg/kg in test [2] was at least 30%.
Take `C[C@H](CNC[C@H](C)c1ccccc1)NS(=O)(=O)c1ccc2cnccc2c1` [Example 25, N—[(R)-1-{(R)-2-phenylpropylamino}propan-2-yl]isoquinoline-6-sulfonamide dihydrochloride]: the Ocular hypotensive activity result in test [1] was “++ (maximum ocular hypotensive rate of 15% or more)”. Moreover, the inhibition in vivo at 10 mg/kg in test [2] is at least 30%.
As to `C[C@H](CNC[C@@](C)(O)c1ccccc1)NS(=O)(=O)c1ccc2cnccc2c1.Cl` [Example 86, N—[(R)-1-{(S)-2-hydroxy-2-phenylpropylamino}propan-2-yl]isoquinoline-6-sulfonamide hydrochloride], in test [1], the Ocular hypotensive activity entry is “++ (maximum ocular hypotensive rate of 15% or more)”. For the same molecule, the inhibition in vivo at 10 mg/kg in test [2] was at least 30%.
The like results for `C[C@H](CNCCc1c[nH]c2ccccc12)NS(=O)(=O)c1ccc2cnccc2c1.Cl` [Example 36, (R)—N-[1-{2-(1H-indol-3-yl)ethylamino}propan-2-yl]isoquinoline-6-sulfonamide hydrochloride] were, in that order, “++ (maximum ocular hypotensive rate of 15% or more)” and at least 30%.
The corresponding values for `Cc1ccc(CCNC[C@@H](C)NS(=O)(=O)c2ccc3cnccc3c2)cc1.Cl` [Example 58, (R)—N-{1-(4-methylphenethylamino)propan-2-yl}isoquinoline-6-sulfonamide hydrochloride] are “++ (maximum ocular hypotensive rate of 15% or more)” and at least 30%.
As to `C[C@H](CNCCc1ccc(N)cc1)NS(=O)(=O)c1ccc2cnccc2c1.Cl.Cl.Cl` [Example 69, (R)—N-{1-(4-aminophenethylamino)propan-2-yl}isoquinoline-6-sulfonamide trihydrochloride], the Ocular hypotensive activity result in test [1] was “++ (maximum ocular hypotensive rate of 15% or more)”.
Regarding `CCCNC[C@@H](C)NS(=O)(=O)c1ccc2cnccc2c1` [Example 4, (R)—N-{1-(propylamino)propan-2-yl}isoquinoline-6-sulfonamide dihydrochloride], in test [1], the Ocular hypotensive activity entry is reported as “++ (maximum ocular hypotensive rate of 15% or more)”.
Still for that read-out and setting: next, `C[C@H](CNCCc1ccccn1)NS(=O)(=O)c1ccc2cnccc2c1.Cl` [Example 81, (R)—N-[1-{2-(pyridin-2-yl)ethylamino}propan-2-yl]isoquinoline-6-sulfonamide hydrochloride]: “++ (maximum ocular hypotensive rate of 15% or more)”; `C[C@H](CNC(=O)Cc1ccccc1)NS(=O)(=O)c1ccc2cnccc2c1.Cl` [Example 103, (R)—N-{2-(isoquinoline-6-sulfonamido)propyl}-2-phenylacetamide hydrochloride]: “++ (maximum ocular hypotensive rate of 15% or more)”.
For `C[C@H](CNCC(O)c1cccnc1)NS(=O)(=O)c1ccc2cnccc2c1` (stereo partly drawn) [Example 88, N-[(2R)-1-{2-hydroxy-2-(pyridin-3-yl)ethylamino}propan-2-yl]isoquinoline-6-sulfonamide dihydrochloride], the Ocular hypotensive activity entry in test [1] was “+ (maximum ocular hypotensive rate of 5% or more and less than 15%)”.
On the same count and under the same terms, the same measure for `C[C@H](CNCCc1c[nH]nn1)NS(=O)(=O)c1ccc2cnccc2c1.Cl` [Example 94, (R)—N-[1-{2-(1H-1,2,3-triazol-4-yl)ethylamino}propan-2-yl]isoquinoline-6-sulfonamide hydrochloride]: “++ (maximum ocular hypotensive rate of 15% or more)”; for `C[C@H](CNC/C=C/c1ccc(Br)cc1)NS(=O)(=O)c1ccc2cnccc2c1` [Example 43, (R, E)-N-[1-{3-(4-bromophenyl)allylamino}propan-2-yl]isoquinoline-6-sulfonamide dihydrochloride]: “++ (maximum ocular hypotensive rate of 15% or more)”.
In the case of `C[C@H](CNCCc1ccc(Cl)cc1)NS(=O)(=O)c1ccc2cnccc2c1` [Example 39, (R)—N-{1-(4-chlorophenethylamino)propan-2-yl}isoquinoline-6-sulfonamide dihydrochloride], the Ocular hypotensive activity entry in test [1] is on record as “++ (maximum ocular hypotensive rate of 15% or more)”.
Same read-out and setting: next, `N[C@H](CNS(=O)(=O)c1ccc2cnccc2c1)Cc1ccccc1` [Example 116, (S)—N-(2-amino-3-phenylpropyl)isoquinoline-6-sulfonamide dihydrochloride]: “+ (maximum ocular hypotensive rate of 5% or more and less than 15%)”.
For the molecule `C[C@H](CNC[C@H](O)c1ccccc1)NS(=O)(=O)c1ccc2cnccc2c1.Cl` [Example 87, N—[(R)-1-{(R)-2-hydroxy-2-phenylethylamino}propan-2-yl]isoquinoline-6-sulfonamide hydrochloride], in test [1], the Ocular hypotensive activity entry was “++ (maximum ocular hypotensive rate of 15% or more)”. Further, in test [2], the inhibition in vivo at 10 mg/kg is at most 20%.
For `CCC(C)CNC[C@@H](C)NS(=O)(=O)c1ccc2cnccc2c1` (stereo partly drawn) [Example 20, N-(2R)-{1-(methylbutylamino)propan-2-yl}isoquinoline-6-sulfonamide hydrochloride], in test [1], the Ocular hypotensive activity result is reported as “++ (maximum ocular hypotensive rate of 15% or more)”.
Take `C[C@H](CNCC1CCC1)NS(=O)(=O)c1ccc2cnccc2c1.Cl` [Example 16, (R)—N-{1-(cyclobutylmethylamino)propan-2-yl}isoquinoline-6-sulfonamide hydrochloride]: in test [1], the Ocular hypotensive activity entry is given as “++ (maximum ocular hypotensive rate of 15% or more)”.
In the case of `CC=CCNC[C@H](C)NS(=O)(=O)c1ccc2cnccc2c1` [Example 8, (S)—N-{1-(but-2-enylamino)propan-2-yl}isoquinoline-6-sulfonamide dihydrochloride], the Ocular hypotensive activity result in test [1] was “++ (maximum ocular hypotensive rate of 15% or more)”.
